Results on two compounds are retold here after patent publication US20250341026A1, “METHODS AND MEANS FOR PREPARING A LIBRARY FOR SEQUENCING” (Illumina, Inc., priority 2018, published 2025).

Assay [1] relates to mtDNA. Put plainly: DAPI staining of samples. It counts as binding. An excerpt:
In addition to performing transposition and ATAC-seq, the samples were also stained. […] DAPI stained DNA, but not at certain locations.

In assay [2] the test system is mtDNA. Nature of the assay: ATAC-seq reads mapped to mtDNA after contacting the sample with dye. As to conditions: for Effect on mitochondrial DNA reads: ATAC-seq, increasing dye concentrations (FIGS. 2A-2C); for % Mapped to mtDNA: transposition and ATAC-seq. Type of assay: biochemical. How it is done: (§1) A sample was obtained having both nuclear DNA and mtDNA. The sample was separated into various aliquots, and each aliquot was contacted with Hoechst 33258 dye in various concentrations, including 8 μM, 80 μM, and 800 μM. Each aliquot was then subjected to transposition and ATAC-seq, and the DNA reads were analyzed.
(§2) As shown in FIGS. 2A-2C, Hoechst dye selectively stained mtDNA, preventing transposition into mtDNA, but allowing transposition of nuclear DNA. […] The methods and compositions may be used for bulk ATAC-seq or single cell ATAC-seq to inhibit, reduce, or eliminate undesired mtDNA sequencing reads.

A further assay concerns gDNA (nuclear). Nature of the assay: ATAC-seq reads mapped to nuclear gDNA after contacting the sample with dye. As to conditions: transposition and ATAC-seq. It counts as biochemical. How it is done:
as §1, §2

In a further assay the test system is nucleosome positioning. Put plainly: ATAC-seq profiles (nucleosome positioning) with dyes compared to no dye control. The settings on record: FIG. 4; compared to the no dye control. Type of assay: biochemical. As for the experimental part: A sample was obtained having both nuclear DNA and mtDNA. The sample was separated into various aliquots, and each aliquot was contacted with a different dye in various concentrations. Five different dyes were used, including Hoechst (at concentrations of 50 μM, 25 μM, 12 μM, 6 μM, 3 μM, and 0.6 μM), SYBR Gold (at concentrations of 500 μM, 50 μM, 5 μM, 0.5 μM, and 0.1 μM), Sytox Orange (at concentrations of 500 μM, 50 μM, 5 μM, 0.5 μM, and 0.1 μM), PicoGreen (at concentrations of 100 μM, 10 μM, 1 μM, 0.1 μM, and 0.02 μM), and Qubit (at concentrations of 100 μM, 10 μM, 1 μM, 0.1 μM, and 0.02 μM), as shown in FIGS. 3A-3C. Another aliquot was prepared that was not exposed to any dye. Each aliquot was then subjected Nextera transposition and products were visualized on a gel. FIG. 3A depicts the gel for Hoechst and SYBR Gold. FIG. 3B depicts the gel for Sytox Orange and PicoGreen, and FIG. 3C depicts the gel for Qubit and no dye. High molecular weight DNA products are indicative of inefficient transposition.
Hoechst allows relatively unbiased ATAC-seq profiling while not changing nucleosome positioning.

Setting [3] is: Concentration of Hoechst 800 μM.

Regarding `N=C(N)c1ccc(-c2cc3ccc(C(=N)N)cc3[nH]2)cc1` [DAPI, 4′, 6-diamidino-2-phenylindole], the “Staining of mtDNA versus actively transcribed regions of nuclear DNA” value in the assay with mtDNA [1] was “staining of mtDNA took place but not of actively transcribed (ATAC) regions of nuclear DNA”.
For the compound `CN1CCN(c2ccc3[nH]c(-c4ccc5[nH]c(-c6ccc(O)cc6)nc5c4)nc3c2)CC1` [Hoechst, Hoechst 33258], the “Effect on mitochondrial DNA reads” value with mtDNA [2] is reported as “reduces mitochondrial DNA reads”; with mtDNA [2] (listed as Hoechst dye), “decreasing mtDNA reads”. Also, the “% Mapped to mtDNA” value came to 32% in the assay on mtDNA [2] (Concentration of Hoechst 8 μM), 11% in the assay on mtDNA [2] (Concentration of Hoechst 80 μM) and 0% in the assay on mtDNA [2] (setting [3]). Also, the figures for the “% Mapped to gDNA (nuclear)” value with gDNA (nuclear) (Concentration of Hoechst 8 μM), in the assay with gDNA (nuclear) (Concentration of Hoechst 80 μM) and in the assay on gDNA (nuclear) (setting [3]) were 68%, 89% and 100%, respectively. Moreover, the “Effect on ATAC-seq profiles (nucleosome positioning)” value in the assay with nucleosome positioning is “does not alter the ATAC-seq profiles”.
